Experimental data from the NIST ThermoML archive (doi:10.1021/je201211f).
± gives the expanded uncertainty stated by the source.

Tests used:
[1] = xn = mol fraction of the nth substance listed; conditions: 101 kPa, Liquid; for mass density: Vibrating tube method; for viscosity: Capillary tube (Ostwald / Ubbelohde) method
[2] = refractive index (Na D-line) (dimensionless); xn = mol fraction of the nth substance listed; conditions: 298.15 K, 101 kPa, Liquid
[3] = 298.15 K, 101.33 kPa, Liquid; for viscosity: Capillary tube (Ostwald / Ubbelohde) method; for mass density: Vibrating tube method
[4] = refractive index (Na D-line) (dimensionless); conditions: 298.15 K; 101.33 kPa; Liquid; Standard Abbe refractometry

Cc1cccc(C)c1 [1,3-dimethylbenzene] + CC(=O)O
[1]
Conditions	mass density, 293.15 K [kg/m3]	mass density, 298.15 K [kg/m3]	mass density, 303.15 K [kg/m3]	viscosity, 298.15 K [mPa·s]
x2 = 0.0777	869.99 ± 0.33	865.62 ± 0.33	861.24 ± 0.33	–
x2 = 0.0962	–	–	–	0.5885 ± 0.0076
x2 = 0.1623	876.98 ± 0.33	872.54 ± 0.32	–	–
x2 = 0.1625	–	–	–	0.5929 ± 0.0076
x2 = 0.2143	881.73 ± 0.32	877.22 ± 0.32	872.69 ± 0.31	–
x2 = 0.2833	888.6 ± 0.32	884 ± 0.31	879.39 ± 0.31	–
x2 = 0.3223	–	–	–	0.6061 ± 0.0075
x2 = 0.35	895.97 ± 0.31	891.29 ± 0.31	886.59 ± 0.31	–
x2 = 0.3797	–	–	–	0.6144 ± 0.0075
x2 = 0.3896	900.67 ± 0.31	895.94 ± 0.31	891.18 ± 0.3	–
x2 = 0.4773	–	–	–	0.6308 ± 0.0075
x2 = 0.4801	912.73 ± 0.32	907.88 ± 0.3	903 ± 0.29	–
x2 = 0.557	–	–	–	0.6504 ± 0.0075
x2 = 0.5621	925.38 ± 0.32	920.41 ± 0.3	915.43 ± 0.29	–
x2 = 0.6204	935.7 ± 0.32	930.66 ± 0.3	925.59 ± 0.29	–
x2 = 0.6405	–	–	–	0.6798 ± 0.0076
x2 = 0.7182	–	–	–	0.7206 ± 0.0077
x2 = 0.7214	956.29 ± 0.35	951.08 ± 0.3	945.86 ± 0.26	–
x2 = 0.7955	–	–	–	0.7754 ± 0.0079
x2 = 0.8155	980.67 ± 0.34	975.31 ± 0.3	969.94 ± 0.27	–
x2 = 0.8721	–	–	–	0.8578 ± 0.0082
x2 = 0.8758	999.34 ± 0.36	993.89 ± 0.31	988.44 ± 0.26	–
x2 = 0.9649	–	–	–	1.023 ± 0.0089
x2 = 0.9672	1034.28 ± 0.31	1028.66 ± 0.31	1023.08 ± 0.31	–

[2]
Conditions	refractive index
x2 = 0.0962	1.4877 ± 0.0013
x2 = 0.1625	1.4829 ± 0.0013
x2 = 0.3223	1.4682 ± 0.0013
x2 = 0.3797	1.4616 ± 0.0013
x2 = 0.4773	1.4523 ± 0.0013
x2 = 0.557	1.4424 ± 0.0013
x2 = 0.6405	1.4319 ± 0.0013
x2 = 0.7182	1.421 ± 0.0012
x2 = 0.7955	1.4066 ± 0.0012
x2 = 0.8721	1.3931 ± 0.0012
x2 = 0.9649	1.3773 ± 0.0012

ClC=C(Cl)Cl [trichloroethene] + Cc1ccccc1C
[1]
Conditions	mass density, 293.15 K [kg/m3]	mass density, 298.15 K [kg/m3]	mass density, 303.15 K [kg/m3]	viscosity, 298.15 K [mPa·s]
x1 = 0.0721	–	–	–	0.7421 ± 0.0084
x1 = 0.088	919.03 ± 0.34	914.58 ± 0.34	910.12 ± 0.34	–
x1 = 0.1511	948.33 ± 0.35	943.7 ± 0.34	939.06 ± 0.33	–
x1 = 0.1615	–	–	–	0.725 ± 0.0083
x1 = 0.2426	992.67 ± 0.36	987.75 ± 0.34	982.82 ± 0.33	–
x1 = 0.2437	–	–	–	0.7095 ± 0.0082
x1 = 0.3181	–	–	–	0.6959 ± 0.008
x1 = 0.3249	1034.35 ± 0.37	1029.15 ± 0.35	1023.95 ± 0.34	–
x1 = 0.3895	1068.4 ± 0.4	1062.98 ± 0.36	1057.54 ± 0.35	–
x1 = 0.3957	–	–	–	0.6808 ± 0.0079
x1 = 0.4775	1116.88 ± 0.4	1111.15 ± 0.38	1105.38 ± 0.36	–
x1 = 0.4824	–	–	–	0.6644 ± 0.0078
x1 = 0.5495	1158.43 ± 0.41	1152.41 ± 0.39	1146.34 ± 0.38	–
x1 = 0.558	–	–	–	0.6498 ± 0.0077
x1 = 0.6346	–	–	–	0.6363 ± 0.0076
x1 = 0.6384	1212.22 ± 0.44	1205.79 ± 0.41	1199.32 ± 0.39	–
x1 = 0.7132	1259.66 ± 0.45	1252.89 ± 0.43	1246.08 ± 0.41	–
x1 = 0.7158	–	–	–	0.6224 ± 0.0075
x1 = 0.79	1310.86 ± 0.48	1303.68 ± 0.45	1296.47 ± 0.43	–
x1 = 0.802	–	–	–	0.6081 ± 0.0074
x1 = 0.8776	1372.25 ± 0.5	1364.6 ± 0.47	1356.92 ± 0.44	–
x1 = 0.8818	–	–	–	0.595 ± 0.0073
x1 = 0.9559	–	–	–	0.5836 ± 0.0073
x1 = 0.9583	1431.95 ± 0.5	1423.79 ± 0.5	1415.62 ± 0.49	–

[2]
Conditions	refractive index
x1 = 0.0721	1.501 ± 0.0007
x1 = 0.1615	1.499 ± 0.0007
x1 = 0.2437	1.4973 ± 0.0007
x1 = 0.3075	1.4958 ± 0.0007
x1 = 0.3957	1.4936 ± 0.0007
x1 = 0.4824	1.4917 ± 0.0007
x1 = 0.5643	1.4896 ± 0.0007
x1 = 0.6346	1.4875 ± 0.0007
x1 = 0.7158	1.4847 ± 0.0007
x1 = 0.806	1.4813 ± 0.0007
x1 = 0.8818	1.4788 ± 0.0007
x1 = 0.9637	1.4762 ± 0.0007

Cc1ccccc1C [1,2-dimethylbenzene]
Conditions	mass density [kg/m3]	refractive index	viscosity [mPa·s]
[3]	875.57 ± 0.24	–	0.757 ± 0.009
[4]	–	1.5024 ± 0.0008	–

ClC=C(Cl)Cl [trichloroethene] + Cc1ccc(C)cc1
Conditions	mass density [kg/m3]	refractive index	viscosity [mPa·s]
[1], 293.15 K, x1 = 0.0843	899.17 ± 0.3	–	–
[1], 293.15 K, x1 = 0.1806	944.97 ± 0.29	–	–
[1], 293.15 K, x1 = 0.2528	980.96 ± 0.28	–	–
[1], 293.15 K, x1 = 0.3239	1017.91 ± 0.29	–	–
[1], 293.15 K, x1 = 0.403	1060.83 ± 0.3	–	–
[1], 293.15 K, x1 = 0.49	1110.44 ± 0.31	–	–
[1], 293.15 K, x1 = 0.5689	1157.79 ± 0.32	–	–
[1], 293.15 K, x1 = 0.6381	1201.31 ± 0.33	–	–
[1], 293.15 K, x1 = 0.7202	1255.5 ± 0.34	–	–
[1], 293.15 K, x1 = 0.7975	1309.15 ± 0.36	–	–
[1], 293.15 K, x1 = 0.8925	1379.16 ± 0.37	–	–
[1], 293.15 K, x1 = 0.9582	1430.28 ± 0.39	–	–
[1], 298.15 K, x1 = 0.0843	894.6 ± 0.3	–	–
[1], 298.15 K, x1 = 0.0897	–	–	0.6075 ± 0.0077
[1], 298.15 K, x1 = 0.154	–	–	0.606 ± 0.0077
[1], 298.15 K, x1 = 0.1806	940.12 ± 0.29	–	–
[1], 298.15 K, x1 = 0.2402	–	–	0.6043 ± 0.0077
[1], 298.15 K, x1 = 0.2528	975.88 ± 0.28	–	–
[1], 298.15 K, x1 = 0.318	–	–	0.6026 ± 0.0076
[1], 298.15 K, x1 = 0.3239	1012.59 ± 0.28	–	–
[1], 298.15 K, x1 = 0.399	–	–	0.5999 ± 0.0076
[1], 298.15 K, x1 = 0.403	1055.25 ± 0.29	–	–
[1], 298.15 K, x1 = 0.4801	–	–	0.5968 ± 0.0075
[1], 298.15 K, x1 = 0.49	1104.53 ± 0.3	–	–
[1], 298.15 K, x1 = 0.5624	–	–	0.594 ± 0.0075
[1], 298.15 K, x1 = 0.5689	1151.57 ± 0.32	–	–
[1], 298.15 K, x1 = 0.6381	1194.8 ± 0.33	–	–
[1], 298.15 K, x1 = 0.64	–	–	0.5915 ± 0.0074
[1], 298.15 K, x1 = 0.718	–	–	0.5888 ± 0.0074
[1], 298.15 K, x1 = 0.7202	1248.62 ± 0.34	–	–
[1], 298.15 K, x1 = 0.7975	1301.88 ± 0.35	–	–
[1], 298.15 K, x1 = 0.8	–	–	0.5861 ± 0.0073
[1], 298.15 K, x1 = 0.8834	–	–	0.5834 ± 0.0073
[1], 298.15 K, x1 = 0.8925	1371.4 ± 0.37	–	–
[1], 298.15 K, x1 = 0.9582	1422.14 ± 0.38	–	–
[1], 298.15 K, x1 = 0.9632	–	–	0.5808 ± 0.0073
[1], 303.15 K, x1 = 0.0843	890.02 ± 0.3	–	–
[1], 303.15 K, x1 = 0.1806	935.27 ± 0.29	–	–
[1], 303.15 K, x1 = 0.2528	970.8 ± 0.28	–	–
[1], 303.15 K, x1 = 0.3239	1007.28 ± 0.28	–	–
[1], 303.15 K, x1 = 0.403	1049.65 ± 0.29	–	–
[1], 303.15 K, x1 = 0.49	1098.61 ± 0.3	–	–
[1], 303.15 K, x1 = 0.5689	1145.35 ± 0.31	–	–
[1], 303.15 K, x1 = 0.6381	1188.25 ± 0.32	–	–
[1], 303.15 K, x1 = 0.7202	1241.69 ± 0.34	–	–
[1], 303.15 K, x1 = 0.7975	1294.56 ± 0.35	–	–
[1], 303.15 K, x1 = 0.8925	1363.59 ± 0.37	–	–
[1], 303.15 K, x1 = 0.9582	1413.95 ± 0.38	–	–
[2], Standard Abbe refractometry, x1 = 0.0897	–	1.4921 ± 0.0005	–
[2], Standard Abbe refractometry, x1 = 0.154	–	1.4911 ± 0.0005	–
[2], Standard Abbe refractometry, x1 = 0.2402	–	1.4897 ± 0.0005	–
[2], Standard Abbe refractometry, x1 = 0.318	–	1.4885 ± 0.0005	–
[2], Standard Abbe refractometry, x1 = 0.399	–	1.4873 ± 0.0005	–
[2], Standard Abbe refractometry, x1 = 0.4801	–	1.486 ± 0.0005	–
[2], Standard Abbe refractometry, x1 = 0.5624	–	1.4844 ± 0.0005	–
[2], Standard Abbe refractometry, x1 = 0.64	–	1.4829 ± 0.0005	–
[2], Standard Abbe refractometry, x1 = 0.721	–	1.4811 ± 0.0005	–
[2], Standard Abbe refractometry, x1 = 0.7988	–	1.4794 ± 0.0005	–
[2], Standard Abbe refractometry, x1 = 0.8834	–	1.4775 ± 0.0005	–
[2], Standard Abbe refractometry, x1 = 0.961	–	1.4753 ± 0.0005	–

Cc1cccc(C)c1 [1,3-dimethylbenzene]
Conditions	mass density [kg/m3]	refractive index	viscosity [mPa·s]
[3]	859.88 ± 0.24	–	0.589 ± 0.008
[4]	–	1.4944 ± 0.0008	–
